Assay results as given in patent US4272437A, “Antibacterial agents, and 4-thio azetidinone intermediates” (priority 1979, dated 1981).
≈ marks a conversion by molar mass, not a printed value. Where “and” joins values, the source holds several entries; their conditions need not be identical. Equal values may be shown once. Read-outs that look alike come from different tables or passages of the source.

How the values were obtained:
Str. pneumoniae A-9585 = test: MIC, tube dilution, Streptococcus pneumoniae A9585; format: cell-based; conditions: overnight 37° C., Nutrient Broth
Text: (§1) Representative compounds of the present invention were subjected to in vitro antibiotic screening against a variety of microorganisms.

Str. pyogenes A-9604 = test: MIC, tube dilution, Streptococcus pyogenes A9604; format: cell-based; conditions: overnight 37° C., Nutrient Broth
Text: as §1

Staph. aureus A-9537 = test: MIC, tube dilution, Staphylococcus aureus A9537; format: cell-based; conditions: overnight 37° C., Nutrient Broth
Text: as §1

[1] = system: Staph. aureus A-9537 and 50% serum; test: MIC, tube dilution, Staph. aureus A9537 + 50% serum; format: cell-based, Staphylococcus aureus; conditions: overnight 37° C.
Text: as §1

[2] = system: Staph. aureus (Pen-Res) A-9606; test: MIC, tube dilution, Staphylococcus aureus A9606 (Pen-Res); format: cell-based; conditions: Staph. aureus A9606 (Pen-Res), overnight 37° C.
Text: as §1

[3] = system: Staph. aureus (Meth-Res) A-15097; test: MIC, tube dilution, Staphylococcus aureus A15097 (Meth-Res); format: cell-based; conditions: Staph. aureus A15097 (Meth-Res), overnight 37° C.; for MIC: Staphylococcus aureus, read-out: Minimum Inhibitory Concentration (M.I.C.)
Text: as §1

Str. faecalis A-20688 = test: MIC, tube dilution, Streptococcus faecalis A20688; format: cell-based; conditions: overnight 37° C.; for MIC: Enterococcus faecalis, A20688, Str. faecalis A20688, read-out: Minimum Inhibitory Concentration (M.I.C.)
Text: as §1

E. coli A-15119 = test: MIC, tube dilution, Escherichia coli A15119; format: cell-based; conditions: overnight 37° C.
Text: as §1

E. coli A-20341-1 = test: MIC, tube dilution, Escherichia coli A20341-1; format: cell-based; conditions: overnight 37° C.; for MIC: Escherichia coli, A203411, E. coli A20341-1, read-out: Minimum Inhibitory Concentration (M.I.C.)
Text: as §1

K. pneumoniae A-15130 = test: MIC, tube dilution, Klebsiella pneumoniae A15130; format: cell-based; conditions: overnight 37° C.
Text: as §1

[4] = system: Klebsiella species A20468; test: MIC, tube dilution, Klebsiella species A20468; format: cell-based; conditions: Klebsiella species (K. pneumoniae) A20468, overnight 37° C.; for MIC: read-out: Minimum Inhibitory Concentration (M.I.C.)
Text: as §1

Pr. mirabilis A-9900 = test: MIC, tube dilution, Proteus mirabilis A9900; format: cell-based; conditions: overnight 37° C.
Text: as §1

Pr. morganii A-15153 = test: MIC, tube dilution, Proteus morganii A15153; format: cell-based; conditions: overnight 37° C.
Text: as §1

Ser. marcescens A-20019 = test: MIC, tube dilution, Serratia marcescens A20019; format: cell-based; conditions: overnight 37° C.
Text: as §1

Ent. cloacae A-9659 = test: MIC, tube dilution, Enterobacter cloacae A9659; format: cell-based; conditions: overnight 37° C.
Text: as §1

Ent. cloacae A-9656 = test: MIC, tube dilution, Enterobacter cloacae A9656; format: cell-based; conditions: overnight 37° C.
Text: as §1

Ps. aeruginosa A-9843A = test: MIC, tube dilution, Pseudomonas aeruginosa A9843A; format: cell-based; conditions: overnight 37° C.
Text: as §1

Ps. aeruginosa A-21213 = test: MIC, tube dilution, Pseudomonas aeruginosa A21213; format: cell-based; conditions: overnight 37° C.; for MIC: Pseudomonas aeruginosa, A21213, Pseudomonas aeruginosa A21213, read-out: Minimum Inhibitory Concentration (M.I.C.)
Text: as §1

Proteus rettgeri A21203 = test: MIC, tube dilution, Proteus rettgeri A21203; format: cell-based; conditions: overnight 37° C.
Text: as §1

Proteus vulgaris A21559 = test: MIC, tube dilution, Proteus vulgaris A21559; format: cell-based; conditions: Proteus vulgaris, A21559, Proteus vulgaris A21559; overnight 37° C.; read-out: Minimum Inhibitory Concentration (M.I.C.)
Text: as §1

E. coli A15119 = test: In vivo protection of mice, lethal infection with E. coli A15119; conditions: Escherichia coli, 2 treatments, 6.5 × 10^5 organisms, read-out: PD50
Protocol: (§2) Representative compounds of the present invention were also tested in vivo in mice and their PD50 (dose of compound in mg/kg required to protect 50% of the treated mice against an otherwise lethal infection of a micro-organism) values determined with respect to the test organisms shown below.

S. aureus A9537 = test: In vivo protection of mice, lethal infection with S. aureus A9537; conditions: Staphylococcus aureus, A9537, im, IM, 2 treatments, 7.3 × 10^5 organisms; read-out: PD50
Protocol: as §2

[5] = stability in aqueous solution followed by UV; format: physicochemical; design: unit not given here; conditions: UV, aqueous solution
Protocol: To a solution of penem 3 (2.4 g, 6.89 mmoles) in tetrahydrofuran-ether-water mixture (1:1:1, 165 ml) was added 30% palladium on diatomaceous earth (4.8 g). The reaction mixture was hydrogenated under 45 p.s.i. at 23° C. for 2.5 h and filtered over celite pad. The filtrate and washings were combined, washed twice with ether, centrifugated and filtered several times to give a clear solution which was lyophilized; 0.622 g, 45%. The crystallization of the compound was induced by the addition of water (0.8 ml); the suspension was centrifuged and the water was removed leaving an orange solid. This solid was washed twice with water and a slightly yellow solid was obtained after drying: […], 19.8%. UV λmax^H.sbsp.2^O : 307 (ε=4318) and 257 (ε=2650). Some crude starting material (1.2 g, 50%) was recovered. The compound (50 mg) can also be purified by column chromatography [Sephadex G10, column size: 1.6×100 cm, flow rate: 10 ml/h, eluent: distilled water, fraction volume: 1.5 ml, detector: refractive index]. UV λmax^H.sbsp.2^O 307 (ε=3597) and 255 (ε=2424).
The stability of the compound in aqueous solution was checked by:
A sample of compound 4 was kept at 23° C. for 3 days and the UV was taken: UV λmax^H.sbsp.2^O : 307 (ε=3055) and 255 (ε=2008).
To a solution of ester 6 (200 mg, 0.5 mmole) in tetrahydrofuran (10 ml) was added ether (10 ml), water (10 ml) and 30% palladium on diatomaceous earth (200 mg). The reaction mixture was hydrogenated in a Parr apparatus under 35 p.s.i. at 25° C. for 2 h 30 min and filtered over a celite pad. The filtrate was washed twice with ether and the aqueous solution was lyophilized, giving a yellow powder which was purified by column chromatography [Sephadex G-10, bed dimensions: 100×1.6 cm, flow rate: 12 ml/h, eluent: distilled water, fraction volume: 1.5 ml detector: refractive index]. The right fractions were combined and lyophilized to give a white powder (10 mg, 8.8%). UV λmax^H.sbsp.2 O 301 (ε=4930), 258 (ε=3290). IR (KBr) cm^-1 :1770 (c=o of β-lactam) and 1580 [drawing 587] The stability of compound 7 in aqueous solution was followed by UV; after 6 h: 301 (4795) and 258 (3105) and after 72 h: 301 (4565) and 258 (3150). […]

Pr. vulgaris A-9716 = test: MIC, tube dilution, Proteus vulgaris / Proteus mirabilis A9716; format: cell-based, Proteus vulgaris (name changed to Proteus mirabilis); conditions: Proteus vulgaris / Proteus mirabilis A9716; overnight 37° C.
Text: as §1

Proteus vulgaris A9555 = test: MIC, tube dilution, Proteus vulgaris (mirabilis) A9555; format: cell-based; conditions: overnight 37° C., read-out: Minimum Inhibitory Concentration (M.I.C.)
Text: as §1

[6] = Staphylococcus aureus, read-out: Minimum Inhibitory Concentration (M.I.C.)

N[C@H]1C[C@H](C2=C(C(=O)O)N3C(=O)C[C@H]3S2)C1 [Example 75, 2-(trans 3-Aminocyclobutyl)-penem-3-carboxylic Acid] gave an MIC (Str. pneumoniae A-9585; Streptococcus pneumoniae, A9585, Str. pneumoniae A9585, read-out: Minimum Inhibitory Concentration (M.I.C.)) of 0.002 µg/mL (≈ 0.00832 µM), an MIC (Str. pyogenes A-9604; Streptococcus pyogenes, A9604, Str. pyogenes A9604, read-out: Minimum Inhibitory Concentration (M.I.C.)) of 0.016 µg/mL (≈ 0.0666 µM) and an MIC (Staph. aureus A-9537; Staphylococcus aureus, A9537, Staph. aureus A9537, read-out: Minimum Inhibitory Concentration (M.I.C.)) of 0.06 µg/mL (≈ 0.25 µM). It also gave an MIC [1, 6] of 0.5 µg/mL, an MIC [2, 6] of 63 µg/mL (≈ 262 µM) and an MIC [3] of 4 µg/mL (≈ 16.6 µM). The MIC (Str. faecalis A-20688) was 4 µg/mL (≈ 16.6 µM), the MIC (E. coli A-15119; Escherichia coli, A15119, E. coli A15119, read-out: Minimum Inhibitory Concentration (M.I.C.)) was 1 µg/mL (≈ 4.16 µM) and the MIC (E. coli A-20341-1) was 8 µg/mL (≈ 33.3 µM). The MIC (K. pneumoniae A-15130; Klebsiella pneumoniae, A15130, K. pneumoniae A15130, read-out: Minimum Inhibitory Concentration (M.I.C.)) was 4 µg/mL (≈ 16.6 µM), the MIC [4] was greater than 125 µg/mL and the MIC (Pr. mirabilis A-9900; Proteus mirabilis, A9900, Proteus mirabilis A9900, read-out: Minimum Inhibitory Concentration (M.I.C.)) was 1 µg/mL (≈ 4.16 µM). The MIC (Pr. morganii A-15153; Morganella morganii, A15153, Proteus morganii A15153, read-out: Minimum Inhibitory Concentration (M.I.C.)) was 4 µg/mL (≈ 16.6 µM), the MIC (Ser. marcescens A-20019; Serratia marcescens, A20019, Serratia marcescens A20019, read-out: Minimum Inhibitory Concentration (M.I.C.)) was 2 µg/mL (≈ 8.32 µM) and the MIC (Ent. cloacae A-9659; Enterobacter cloacae, A9659, Enterobacter cloacae A9659, read-out: Minimum Inhibitory Concentration (M.I.C.)) was 4 µg/mL (≈ 16.6 µM). It also gave an MIC (Ent. cloacae A-9656; Enterobacter cloacae, A9656, Enterobacter cloacae A9656, read-out: Minimum Inhibitory Concentration (M.I.C.)) of 4 µg/mL (≈ 16.6 µM), an MIC (Ps. aeruginosa A-9843A; Pseudomonas aeruginosa, A9843A, read-out: Minimum Inhibitory Concentration (M.I.C.), Pseudomonas aeruginosa A9843A) of 63 µg/mL (≈ 262 µM) and an MIC (Ps. aeruginosa A-21213) of 125 µg/mL (≈ 520 µM). It also gave an MIC (Proteus rettgeri A21203; Providencia rettgeri, A21203, Proteus rettgeri A21203, read-out: Minimum Inhibitory Concentration (M.I.C.)) of 1 µg/mL (≈ 4.16 µM), an MIC (Proteus vulgaris A21559) of 2 µg/mL (≈ 8.32 µM) and an ED50 (E. coli A15119; IM) of 25 mg/kg. For the same compound, the ED50 (E. coli A15119; PO) was greater than 50 mg/kg and the ED50 (S. aureus A9537) was 0.4 mg/kg.

With NCCCC1=C(C(=O)O)N2C(=O)CC2S1 (centres unmarked) [Example 51, 2-(γ-Aminopropyl)penem-3-carboxylic Acid] the “ε at 258 in aqueous solution (stability)” value ([5]; after 6 h) was 3105, the “ε at 301 in aqueous solution (stability)” value ([5]; after 6 h) was 4795 and the “ε at 258 in aqueous solution (stability)” value ([5]; after 72 h) was 3150. The “ε at 301 in aqueous solution (stability)” value ([5]; after 72 h) was 4565, the “Minimum Inhibitory Concentration (M.I.C.)” value (Str. pneumoniae A-9585; Str. pneumoniae A9585) was “.25 µg/mL” and the “Minimum Inhibitory Concentration (M.I.C.)” value (Str. pyogenes A-9604; Str. pyogenes A9604) was 2 µg/mL and 1 µg/mL. The “Minimum Inhibitory Concentration (M.I.C.)” value (Staph. aureus A-9537; Staph. aureus A9537) was 2 µg/mL and 1 µg/mL, the “Minimum Inhibitory Concentration (M.I.C.)” value [1] was 63 µg/mL and > 32 µg/mL and the “Minimum Inhibitory Concentration (M.I.C.)” value [2] was 63 µg/mL and 32 µg/mL. For the same compound, the “Minimum Inhibitory Concentration (M.I.C.)” value [3] was 125 µg/mL, the MIC [3] was 63 µg/mL (≈ 276 µM) and the MIC (Str. faecalis A-20688) was 63 µg/mL (≈ 276 µM). For the same compound, the “Minimum Inhibitory Concentration (M.I.C.)” value (Str. faecalis A-20688; Str. faecalis A20688) was 125 µg/mL, the “Minimum Inhibitory Concentration (M.I.C.)” value (E. coli A-15119; E. coli A15119) was 16 µg/mL and 8 µg/mL and the “Minimum Inhibitory Concentration (M.I.C.)” value (E. coli A-20341-1; E. coli A20341-1) was 125 µg/mL. For the same compound, the MIC (E. coli A-20341-1) was greater than 63 µg/mL, the “Minimum Inhibitory Concentration (M.I.C.)” value (K. pneumoniae A-15130; K. pneumoniae A15130) was 32 µg/mL and the “Minimum Inhibitory Concentration (M.I.C.)” value [4] was greater than 125 µg/mL. The MIC [4] was greater than 63 µg/mL, the “Minimum Inhibitory Concentration (M.I.C.)” value (Pr. mirabilis A-9900; Proteus mirabilis A9900) was 16 µg/mL and 8 µg/mL and the “Minimum Inhibitory Concentration (M.I.C.)” value (Pr. vulgaris A-9716) was 16 µg/mL. For the same compound, the “Minimum Inhibitory Concentration (M.I.C.)” value (Pr. morganii A-15153; Proteus morganii A15153) was 32 µg/mL and 16 µg/mL, the “Minimum Inhibitory Concentration (M.I.C.)” value (Ser. marcescens A-20019; Serratia marcescens A20019) was 32 µg/mL and 16 µg/mL and the “Minimum Inhibitory Concentration (M.I.C.)” value (Ent. cloacae A-9659; Enterobacter cloacae A9659) was 16 µg/mL. The “Minimum Inhibitory Concentration (M.I.C.)” value (Ent. cloacae A-9656; Enterobacter cloacae A9656) was 32 µg/mL, the “Minimum Inhibitory Concentration (M.I.C.)” value (Ps. aeruginosa A-9843A; Pseudomonas aeruginosa A9843A) was 125 µg/mL and 63 µg/mL and the “Minimum Inhibitory Concentration (M.I.C.)” value (Ps. aeruginosa A-21213; Pseudomonas aeruginosa A21213) was 125 µg/mL. For the same compound, the MIC (Ps. aeruginosa A-21213) was 63 µg/mL (≈ 276 µM), the “Minimum Inhibitory Concentration (M.I.C.)” value (Proteus rettgeri A21203; Proteus rettgeri A21203) was 16 µg/mL and 8 µg/mL and the MIC (Proteus vulgaris A9555) was 63 µg/mL (≈ 276 µM).
